Patent US11331333B2, “Treatment of aberrant fibroblast proliferation” (Georg August Universitaet Goettingen Stiftung Oeffentlichen …, priority 2019, dated 2022)

What was measured:
Type in all cases: cell-based, mouse
[1] = tested on: primary murine fibroblast cultures overexpressing EYA1A; assay: γH2A.X^pY142 labelling after NCS exposure in fibroblasts overexpressing EYA1A; settings: 60 minutes after NCS exposure
From the text: (§1) FIGS. 12A-12B show the effect of the established EYA1 γH2A.X^pY142 tyrosine phosphatase inhibitors Na3VO4 (blocking tyrosine phosphatase activity) and caffeine (blocking ATM-dependent recruitment of EYA1 towards γH2A.X) on γH2A.X^pY142 dephosphorylation and fibroblast accumulation. FIG. 12A depicts results of an analysis of photomicrographs of primary murine fibroblast cultures transfected with control plasmids (vector) and plasmids overexpressing EYA1A (EYA1A^oe) or EYA1C (EYA1C^oe). Cells were exposed to either Na3VO4 or caffeine and labelled for 7H2A.X^pY142 60 minutes after NCS exposure (n=100 nuclei each, data are presented as means±s.d., **p<0.01, # no significance, values of p were calculated using Student's t test comparing indicated groups). FIG. 12B depicts results of an analysis of proliferative activity of primary murine fibroblasts transfected with indicated constructs, seeded at a density of 60,000 per well. Proliferative activity was determined at indicated time points after exposure to Na3VO4 or caffeine (n=3 independent replicates, data are presented as means±s.d., ***p<0.001, ****p<0.0001, values of p were calculated using one-way ANOVA with Bonferroni post-hoc analysis comparing control and Na3VO4^− or caffeine-treated cultures overexpressing EYA1A). […]

[2] = tested on: primary murine fibroblast cultures overexpressing EYA1C; assay: γH2A.X^pY142 labelling after NCS exposure in fibroblasts overexpressing EYA1C; settings: 60 minutes after NCS exposure
From the text: as §1

[3] = tested on: primary murine fibroblasts overexpressing EYA1A; assay: Proliferative activity of primary murine fibroblasts overexpressing EYA1A; settings: seeded at 60,000 per well
From the text: FIGS. 12A-12B show the effect of the established EYA1 γH2A.X^[…] tyrosine phosphatase inhibitors Na3VO4 (blocking tyrosine phosphatase activity) and caffeine (blocking ATM-dependent recruitment of EYA1 towards γH2A.X) on γH2A.X^[…] dephosphorylation and fibroblast accumulation. FIG. 12A depicts results of an analysis of photomicrographs of primary murine fibroblast cultures transfected with control plasmids (vector) and plasmids overexpressing […]) or EYA1C (EYA1C^oe). […] FIG. 12B depicts results of an analysis of proliferative activity of primary murine fibroblasts transfected with indicated constructs, seeded at a density of 60,000 per well.

Row | Compound | EYA1A-induced premature γH2A.X^pY142 dephosphorylation [1] | γH2A.X^pY142 in EYA1C overexpressing cells [2] | EYA1A-induced fibroblast accumulation [3]
1 | [Na+].[Na+].[Na+].[O]=[V]([O-])([O-])[O-] [Na3VO4, sodium orthovanadate] | reversed | neither Na3VO4 nor caffeine affected | reversed
2 | Cn1c(=O)c2c(ncn2C)n(C)c1=O [caffeine] | reversed | neither Na3VO4 nor caffeine affected | reversed
